# “And” between values parts separate entries of the source, which are not always exact repeats. Equal entries are not always repeated. Where two headings read alike, the source gives them in different places.
# Legend:
# canine prostate [1] = assay: Chronic canine experiment: intraprostatic EtOH injection, four weeks observation, autopsy and histology
# human prostate = assay: Transperineal intraprostatic EtOH injection in heart-beating cadaveric organ donors; conditions: for average volume of the lesion: five human prostates, 1 cm porous segment
# canine prostate [2] = conditions: for lesion volume: 1 cm porous segment, 2 h after injection
# Protocol: Intraprostatic ethanol injections were performed in eight Beagle dogs for acute experiments. Animals received premedication with medetomidin (0.004 mg/kg), metadon (0.3 mg/kg), and acepromazil (0.02 mg/kg). Anesthesia was induced with propofol (1.5-2 mg/kg) and maintained by propofol (10 mg/kg/hour) and fentanyl (0.24 mg/kg/hour). Prostate exposure was performed using lower midline abdominal incisions and blunt dissection of surrounding tissues. The porous needle was stabilized with a fixation apparatus attached to the operating table and was deployed with a protective sheath in the lateral lobe of the prostate. […] Where possible, the distal end of the sheath was kept at least 2 mm from the pseudocapsule. […] Injections in both lateral lobes of each canine were performed. […] In the remaining experiments, 0.5, 1, 1.5, or 2 ml was injected into each prostatic lobe. In five experiments, a needle with a 1 cm long microporous segment was used, while a 2 cm long segment was used in one experiment. The tissue resistance during injections was measured by including the pressure transduced between the pump and the needle. Two hours following the second injection, the animals were anaesthetised by an intramuscular injection of medetomidine and ketamine, followed by intravenous injection of pentobarbital, and euthanized using exsanguination.
# Histology slides were converted to digital images.
compound,measurement,setting,value
"CCO [EtOH, ethanol]",transient increase in body temperature,"canine prostate [1]; animals with wound swelling, lasted less than 24 hours",38.5 °C and 39 °C
same,extraprostatic leak during injection,canine prostate [1]; chronic study,free of exptraprostatic leak
same,immediate complications,canine prostate [1]; chronic study,No immediate complications occurred
same,long-term complications,"canine prostate [1]; chronic study, four weeks observation",swelling of the wound in two animals and serous exudation in one animal
same,damage to adjacent structures at prostatectomy,canine prostate [1]; four weeks after injection,no damage to adjacent structures
same,tissue defects on whole mount sections,"canine prostate [1]; four weeks after injection, H&E","tissue defects (cavities) in all prostatic lobes injected with 1, 1.5, and 2 ml"
same,prostatic pseudocapsule area,"canine prostate [1]; four weeks after injection, histology",showed no abnormalities
same,average volume of the lesion,human prostate; 2 ml injected per lobe,0.978 mL
same,average volume of the lesion,human prostate; 3 ml injected per lobe,1.742 mL
same,lesion size with 3 ml relative to 2 ml,"human prostate; average, human prostates",1.78 ×
same,extraprostatic tissue injury,human prostate; human prostates,no evidence to the extraprostatic tissue injury was observed
same,lesion localization,human prostate; human prostates,In all cases the lesion was localized within the prostate
same,prostatic capsule integrity,human prostate; human prostates,remained intact
same,lesion volume,canine prostate [2]; 0.5 ml EtOH injected per lobe,208±58 mm^3
same,lesion volume,canine prostate [2]; 1.0 ml EtOH injected per lobe,588±112 mm^3
same,lesion volume,canine prostate [2]; 1.5 ml EtOH injected per lobe,791±338 mm^3
same,tissue infiltration with 2 cm porous segment needle,canine prostate [2]; 2 cm porous segment compared with 1 cm,larger areas of tissue infiltration
same,lesion volume,canine prostate [2]; 2.0 ml EtOH injected per lobe,1158±200 mm^3
same,"necrotic areas, share of the section","canine prostate [2]; canine prostate section, FIG. 4",more than 80%
same,extraprostatic leak during injection,"canine prostate [2]; dog, in vivo",No extraprostatic leak
same,prostatic pseudocapsule integrity,"canine prostate [2]; dog, in vivo",remained intact without evidence of disruption
